Experimental data as given in ChEMBL document CHEMBL3045635, “Synthesis and in vitro antimicrobial evaluation of novel 2-amino-6-(phenylthio)-4-(2-(phenylthio)quinolin-3-yl)pyridine-3,5-dicarbonitriles” (2013).
≈ marks a conversion by molar mass, not a printed value.

Columns and labels:
Assay type in all cases: functional
Escherichia coli = test: Antibacterial activity against Escherichia coli MTCC 443 after 24 hr by broth microdilution method; conditions: MTCC 443, 24 h
Bacillus subtilis = test: Antibacterial activity against Bacillus subtilis MTCC 441 after 24 hr by broth microdilution method; conditions: MTCC 441, 24 h
Clostridium tetani = test: Antibacterial activity against Clostridium tetani MTCC 449 after 24 hr by broth microdilution method; conditions: MTCC 449, 24 h
Vibrio cholerae = test: Antibacterial activity against Vibrio cholerae MTCC 3906 after 24 hr by broth microdilution method; conditions: MTCC 3906, 24 h
Aspergillus fumigatus = test: Antifungal activity against Aspergillus fumigatus MTCC 3008 after 48 hr by broth microdilution method
Streptococcus pneumoniae = test: Antibacterial activity against Streptococcus pneumoniae MTCC 1936 after 24 hr by broth microdilution method; conditions: MTCC 1936, 24 h
Salmonella typhi = test: Antibacterial activity against Salmonella enterica subsp. enterica serovar Typhi MTCC 98 after 24 hr by broth microdilution method; conditions: MTCC 98, 24 h
Candida albicans = test: Antifungal activity against Candida albicans MTCC 227 after 48 hr by broth microdilution method

Row | Compound | MIC (Escherichia coli) | MIC (Bacillus subtilis) | MIC (Clostridium tetani) | MIC (Vibrio cholerae) | MIC (Aspergillus fumigatus; MTCC 3008, 48 h) | MIC (Streptococcus pneumoniae) | MIC (Salmonella typhi) | MIC (Candida albicans; MTCC 227, 48 h) | MIC (Aspergillus fumigatus) | MIC (Candida albicans)
1 | N#Cc1c(N)nc(Sc2ccc(Cl)cc2)c(C#N)c1-c1cc2ccccc2nc1Sc1ccccc1 | 250 µg/mL (≈ 479 µM) | 250 µg/mL (≈ 479 µM) | 200 µg/mL (≈ 383 µM) | 250 µg/mL (≈ 479 µM) | 1000 µg/mL (≈ 1920 µM) | 500 µg/mL (≈ 958 µM) | 250 µg/mL (≈ 479 µM) | 1000 µg/mL (≈ 1920 µM) |  | 
2 | Cc1ccc(Sc2nc(N)c(C#N)c(-c3cc4ccccc4nc3Sc3ccc(Cl)cc3)c2C#N)cc1 | 62.5 µg/mL (≈ 117 µM) | 100 µg/mL (≈ 187 µM) | 250 µg/mL (≈ 466 µM) | 200 µg/mL (≈ 373 µM) | > 1000 µg/mL | 200 µg/mL (≈ 373 µM) | 100 µg/mL (≈ 187 µM) | 250 µg/mL (≈ 466 µM) |  | 
3 | NYSTATIN |  |  |  |  |  |  |  |  | 100 µg/mL | 100 µg/mL
4 | Cc1ccc2nc(Sc3ccc(Cl)cc3)c(-c3c(C#N)c(N)nc(Sc4ccc(Cl)cc4)c3C#N)cc2c1 | 50 µg/mL (≈ 87.6 µM) | 500 µg/mL (≈ 876 µM) | 500 µg/mL (≈ 876 µM) | 200 µg/mL (≈ 351 µM) | 500 µg/mL (≈ 876 µM) | 500 µg/mL (≈ 876 µM) | 100 µg/mL (≈ 175 µM) | 500 µg/mL (≈ 876 µM) |  | 
5 | N#Cc1c(N)nc(Sc2ccccc2)c(C#N)c1-c1cc2ccccc2nc1Sc1ccccc1 | 250 µg/mL (≈ 513 µM) | 500 µg/mL (≈ 1030 µM) | 500 µg/mL (≈ 1030 µM) | 200 µg/mL (≈ 410 µM) | 500 µg/mL (≈ 1030 µM) | 500 µg/mL (≈ 1030 µM) | 200 µg/mL (≈ 410 µM) | 250 µg/mL (≈ 513 µM) |  | 
6 | N#Cc1c(N)nc(Sc2ccccc2)c(C#N)c1-c1cc2ccccc2nc1Sc1ccc(Cl)cc1 | 100 µg/mL (≈ 192 µM) | 100 µg/mL (≈ 192 µM) | 200 µg/mL (≈ 383 µM) | 100 µg/mL (≈ 192 µM) | 1000 µg/mL (≈ 1920 µM) | 200 µg/mL (≈ 383 µM) | 200 µg/mL (≈ 383 µM) | 200 µg/mL (≈ 383 µM) |  | 
7 | CCn1cc(C(=O)O)c(=O)c2cc(F)c(N3CCNCC3)cc21 [NORFLOXACIN] | 10 µg/mL (≈ 31.3 µM) | 100 µg/mL (≈ 313 µM) | 50 µg/mL (≈ 157 µM) | 10 µg/mL (≈ 31.3 µM) |  | 10 µg/mL (≈ 31.3 µM) | 10 µg/mL (≈ 31.3 µM) |  |  | 
8 | N#Cc1c(N)nc(Sc2ccc(Cl)cc2)c(C#N)c1-c1cc2ccccc2nc1Sc1ccc(Cl)cc1 | 200 µg/mL (≈ 359 µM) | 250 µg/mL (≈ 449 µM) | 500 µg/mL (≈ 898 µM) | 200 µg/mL (≈ 359 µM) | 1000 µg/mL (≈ 1800 µM) | 100 µg/mL (≈ 180 µM) | 200 µg/mL (≈ 359 µM) | 500 µg/mL (≈ 898 µM) |  | 
9 | Cc1ccc(Sc2nc3ccc(C)cc3cc2-c2c(C#N)c(N)nc(Sc3ccc(Cl)cc3)c2C#N)cc1 | 100 µg/mL (≈ 182 µM) | 250 µg/mL (≈ 454 µM) | 100 µg/mL (≈ 182 µM) | 200 µg/mL (≈ 364 µM) | > 1000 µg/mL | 250 µg/mL (≈ 454 µM) | 100 µg/mL (≈ 182 µM) | 1000 µg/mL (≈ 1820 µM) |  | 
10 | Cc1ccc2nc(Sc3ccccc3)c(C=O)cc2c1 | 200 µg/mL (≈ 716 µM) | 500 µg/mL (≈ 1790 µM) | 250 µg/mL (≈ 895 µM) | 250 µg/mL (≈ 895 µM) | > 1000 µg/mL | 500 µg/mL (≈ 1790 µM) | 200 µg/mL (≈ 716 µM) | > 1000 µg/mL |  | 
11 | Cc1ccc(Sc2nc3ccccc3cc2C=O)cc1 | 200 µg/mL (≈ 716 µM) | 250 µg/mL (≈ 895 µM) | 250 µg/mL (≈ 895 µM) | 250 µg/mL (≈ 895 µM) | 200 µg/mL (≈ 716 µM) | 250 µg/mL (≈ 895 µM) | 250 µg/mL (≈ 895 µM) | 1000 µg/mL (≈ 3580 µM) |  | 
12 | Cc1ccc2nc(Sc3ccccc3)c(-c3c(C#N)c(N)nc(Sc4ccccc4)c3C#N)cc2c1 | 200 µg/mL (≈ 399 µM) | 250 µg/mL (≈ 498 µM) | 250 µg/mL (≈ 498 µM) | 250 µg/mL (≈ 498 µM) | 250 µg/mL (≈ 498 µM) | 250 µg/mL (≈ 498 µM) | 200 µg/mL (≈ 399 µM) | 1000 µg/mL (≈ 1990 µM) |  | 
13 | Cc1ccc(Sc2nc(N)c(C#N)c(-c3cc4ccccc4nc3Sc3ccccc3)c2C#N)cc1 | 100 µg/mL (≈ 199 µM) | 200 µg/mL (≈ 399 µM) | 250 µg/mL (≈ 498 µM) | 250 µg/mL (≈ 498 µM) | 250 µg/mL (≈ 498 µM) | 250 µg/mL (≈ 498 µM) | 125 µg/mL (≈ 249 µM) | 1000 µg/mL (≈ 1990 µM) |  | 
14 | O=C(O)c1cn(C2CC2)c2cc(N3CCNCC3)c(F)cc2c1=O [CIPROFLOXACIN] | 25 µg/mL (≈ 75.4 µM) |  |  | 25 µg/mL (≈ 75.4 µM) |  | 50 µg/mL (≈ 151 µM) | 25 µg/mL (≈ 75.4 µM) |  |  | 
15 | Cc1ccc2nc(Sc3ccc(Cl)cc3)c(-c3c(C#N)c(N)nc(Sc4ccccc4)c3C#N)cc2c1 | 62.5 µg/mL (≈ 117 µM) | 250 µg/mL (≈ 466 µM) | 250 µg/mL (≈ 466 µM) | 100 µg/mL (≈ 187 µM) | > 1000 µg/mL | 250 µg/mL (≈ 466 µM) | 200 µg/mL (≈ 373 µM) | 1000 µg/mL (≈ 1870 µM) |  | 
